# From patent publication US11208379B2, “Compounds, compositions, methods for treating diseases, and methods for preparing compounds” (UNIVERSITY OF LOUISVILLE RESEARCH FOUNDATION, INC., priority 2017, dated 2021)
# System: A549 lung cancer cells
# Experiment: Cell death / cell survival by trypan blue exclusion
# Type: cell-based, human
# Conditions: A549, 1 μM, FIG. 36 top panel
# Method: A549 (human lung adenocarcinoma) cells and MDA-MB-231 (human breast adenocarcinoma) cells were cultured in DMEM medium containing 10% FBS and 1% Penicillin/Streptomycin. IMR-90 (human non-malignant lung fibroblast) cells were cultured in EMEM medium containing 10% FBS and 1% Penicillin/Streptomycin. MCF10A (human non-malignant breast epithelial) cells in MEBM containing 10% FBS. Cell viability after treatment was determined using 3-(4,5-dimethylthiazol-2-yl)-2,5-diphenyltetrazolium bromide (MTT). After 72 h treatment with compound, a 5 mg/ml solution MTT of (Sigma, St. Louis, Mo.) was added in at 1/10 total sample volume. Cells were then incubated for 4 h. Lysis buffer (10% SDS in 0.01 N HCl) was added at half of the original sample volume and incubated overnight. Plates were read at 570 nm. Graphs indicate average of one or two experiments (performed in quadruplet wells)±SEM. Cell death in A549 cells was assessed by trypan blue exclusion. […] ROS production in A549 lung cancer cells after 48 h treatment with the compounds was assayed using ROS-Glo™ H2O2 Assay Kit (Promega).
# A549 (human lung adenocarcinoma) cells and MDA-MB-231 (human breast adenocarcinoma) cells were cultured in DMEM medium containing 10% FBS and 1% Penicillin/Streptomycin. IMR-90 (human non-malignant lung fibroblast) cells were cultured in EMEM medium containing 10% FBS and 1% Penicillin/Streptomycin. […]
smiles,measurement,value
CCOC(=S)N/N=C(C)/C(C)=N/NC(=S)NC [I-4],cell viability (trypan blue exclusion),less effective
